Experimental data: patent publication US9409884B2 (Rigel Pharmaceuticals, Inc., priority 2012, dated 2016)

Molecular target: AMPK
Assay: AMPK activation, enzyme-linked immunosorbent assay
Assay type: biochemical
Outline: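 AMPK activation by test compounds was measured by enzyme-linked immunosorbent assay.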

| EC50 (Table 9, compounds of Table 2) | EC50 (Table 10, compounds of Table 3) | SMILES |
| --- | --- | --- |
| 10000 to 50000 nM | – | O=C(NC1CCN(C(=O)c2ccc(F)cc2)CC1)c1ccc2[nH]c3c(c2c1)CN(c1ccc(F)cc1)CC3 [Compound 2-39, N-(1-(4-fluorobenzoyl)piperidin-4-yl)-2-(4-fluorophenyl)-2,3,4,5-tetrahydro-1H-pyrido[4,3-b]indole-8-carboxamide] |
| > 100000 nM | – | O=C(NC1CCN(C(=O)c2cccnc2)CC1)c1ccc2[nH]c3c(c2c1)CN(c1ccc(F)cc1)CC3 [Compound 2-40, 2-(4-fluorophenyl)-N-(1-nicotinoylpiperidin-4-yl)-2,3,4,5-tetrahydro-1H-pyrido[4,3-b]indole-8-carboxamide] |
| 10000 to 50000 nM | – | O=C(NC1CCN(C(=O)c2ccc(C(F)(F)F)cc2)CC1)c1ccc2[nH]c3c(c2c1)CN(c1ccc(F)cc1)CC3 [Compound 2-41, 2-(4-fluorophenyl)-N-(1-(4-(trifluoromethyl)benzoyl)piperidin-4-yl)-2,3,4,5-tetrahydro-1H-pyrido[4,3-b]indole-8-carboxamide] |
| > 100000 nM | – | CC(C)(C)OC(=O)N1CCC(NC(=O)c2ccc3[nH]c4c(c3c2)CN(Cc2ccc(C(N)=O)cc2)CC4)CC1 [Compound 2-43, tert-butyl 4-(2-(4-carbamoylbenzyl)-2,3,4,5-tetrahydro-1H-pyrido[4,3-b]indole-8-carboxamido)piperidine-1-carboxylate] |
| 10000 to 50000 nM | – | N#Cc1ccc(CN2CCC(NC(=O)c3ccc4[nH]c5c(c4c3)CN(Cc3ccc(C(N)=O)cc3)CC5)CC2)cc1 [Compound 2-44, 2-(4-carbamoylbenzyl)-N-(1-(4-cyanobenzyl)piperidin-4-yl)-2,3,4,5-tetrahydro-1H-pyrido[4,3-b]indole-8-carboxamide] |
| > 100000 nM | – | NC(=O)c1ccc(CN2CCc3[nH]c4ccc(C(=O)NC5CCN(Cc6ccncc6)CC5)cc4c3C2)cc1 [Compound 2-45, 2-(4-carbamoylbenzyl)-N-(1-(pyridin-4-ylmethyl)piperidin-4-yl)-2,3,4,5-tetrahydro-1H-pyrido[4,3-b]indole-8-carboxamide] |
| > 100000 nM | – | NC(=O)c1ccc(CN2CCc3[nH]c4ccc(C(=O)NC5CCN(C(=O)c6ccncc6)CC5)cc4c3C2)cc1 [Compound 2-46, 2-(4-carbamoylbenzyl)-N-(1-isonicotinoylpiperidin-4-yl)-2,3,4,5-tetrahydro-1H-pyrido[4,3-b]indole-8-carboxamide] |
| 10000 to 50000 nM | – | NC(=O)c1ccc(CN2CCc3[nH]c4ccc(C(=O)NC5CCN(Cc6ccc(C(F)(F)F)cc6)CC5)cc4c3C2)cc1 [Compound 2-47, 2-(4-carbamoylbenzyl)-N-(1-(4-(trifluoromethyl)benzyl)piperidin-4-yl)-2,3,4,5-tetrahydro-1H-pyrido[4,3-b]indole-8-carboxamide] |
| > 100000 nM | – | NC(=O)c1ccc(CN2CCc3[nH]c4ccc(C(=O)NC5CCN(Cc6ccc(F)cc6)CC5)cc4c3C2)cc1 [Compound 2-48, 2-(4-carbamoylbenzyl)-N-(1-(4-fluorobenzyl)piperidin-4-yl)-2,3,4,5-tetrahydro-1H-pyrido[4,3-b]indole-8-carboxamide] |
| > 100000 nM | – | NC(=O)c1ccc(CN2CCC(NC(=O)c3ccc4[nH]c5c(c4c3)CN(Cc3ccc(C(N)=O)cc3)CC5)CC2)cc1 [Compound 2-49, 2-(4-carbamoylbenzyl)-N-(1-(4-carbamoylbenzyl)piperidin-4-yl)-2,3,4,5-tetrahydro-1H-pyrido[4,3-b]indole-8-carboxamide] |
| < 500 nM | – | O=C(NC1CCN(Cc2ccncc2)CC1)c1ccc2[nH]c3c(c2c1)CN(Cc1ccc(C(F)(F)F)cc1)CC3 [Compound 2-50, N-(1-(pyridin-4-ylmethyl)piperidin-4-yl)-2-(4-(trifluoromethyl)benzyl)-2,3,4,5-tetrahydro-1H-pyrido[4,3-b]indole-8-carboxamide] |
| 500 to 1000 nM | – | O=C(NC1CCN(C(=O)c2ccncc2)CC1)c1ccc2[nH]c3c(c2c1)CN(Cc1ccc(C(F)(F)F)cc1)CC3 [Compound 2-51, N-(1-isonicotinoylpiperidin-4-yl)-2-(4-(trifluoromethyl)benzyl)-2,3,4,5-tetrahydro-1H-pyrido[4,3-b]indole-8-carboxamide] |
| 1000 to 5000 nM | – | NC(=O)c1ccc(CN2CCC(NC(=O)c3ccc4[nH]c5c(c4c3)CN(Cc3ccc(C(F)(F)F)cc3)CC5)CC2)cc1 [Compound 2-52, N-(1-(4-carbamoylbenzyl)piperidin-4-yl)-2-(4-(trifluoromethyl)benzyl)-2,3,4,5-tetrahydro-1H-pyrido[4,3-b]indole-8-carboxamide] |
| 10000 to 50000 nM | – | Cn1cnc(CN2CCC(NC(=O)c3ccc4[nH]c5c(c4c3)CN(Cc3ccc(C(F)(F)F)cc3)CC5)CC2)c1 [Compound 2-53, N-(1-((1-methyl-1H-imidazol-4-yl)methyl)piperidin-4-yl)-2-(4-(trifluoromethyl)benzyl)-2,3,4,5-tetrahydro-1H-pyrido[4,3-b]indole-8-carboxamide] |
| < 500 nM | – | O=C(NC1CCN(Cc2cocn2)CC1)c1ccc2[nH]c3c(c2c1)CN(Cc1ccc(C(F)(F)F)cc1)CC3 [Compound 2-54, N-(1-(oxazol-4-ylmethyl)piperidin-4-yl)-2-(4-(trifluoromethyl)benzyl)-2,3,4,5-tetrahydro-1H-pyrido[4,3-b]indole-8-carboxamide] |
| – | < 100 nM | CC(C)(C)OC(=O)N1CCC(NC(=O)c2nc3ccc(OC4CCN(c5ccc(C(F)(F)F)cc5)CC4)cc3o2)CC1 [Compound 3-1, tert-butyl 4-(6-(1-(4-(trifluoromethyl)phenyl)piperidin-4-yloxy)benzo[d]oxazole-2-carboxamido)piperidine-1-carboxylate] |
| – | < 100 nM | N#Cc1ccc(CN2CCC(NC(=O)c3nc4ccc(OC5CCN(c6ccc(C(F)(F)F)cc6)CC5)cc4o3)CC2)cc1 [Compound 3-2, N-(1-(4-cyanobenzyl)piperidin-4-yl)-6-(1-(4-(trifluoromethyl)phenyl)piperidin-4-yloxy)benzo[d]oxazole-2-carboxamide] |
| – | < 100 nM | O=C(NC1CCN(Cc2ccncc2)CC1)c1nc2ccc(OC3CCN(c4ccc(C(F)(F)F)cc4)CC3)cc2o1 [Compound 3-3, N-(1-(pyridin-4-ylmethyl)piperidin-4-yl)-6-(1-(4-(trifluoromethyl)phenyl)piperidin-4-yloxy)benzo[d]oxazole-2-carboxamide] |
| – | < 100 nM | O=C(NC1CCN(C(=O)c2ccc(F)cc2)CC1)c1nc2ccc(OC3CCN(c4ccc(C(F)(F)F)cc4)CC3)cc2o1 [Compound 3-4, N-(1-(4-fluorobenzoyl)piperidin-4-yl)-6-(1-(4-(trifluoromethyl)phenyl)piperidin-4-yloxy)benzo[d]oxazole-2-carboxamide] |
| – | 10000 to 100000 nM | O=C(NC1CCNCC1)c1nc2ccc(OC3CCN(c4ccc(C(F)(F)F)cc4)CC3)cc2o1 [Compound 3-5, N-(piperidin-4-yl)-6-(1-(4-(trifluoromethyl)phenyl)piperidin-4-yloxy)benzo[d]oxazole-2-carboxamide] |
| – | < 100 nM | N#Cc1ccc(C(=O)N2CCC(NC(=O)c3nc4ccc(OC5CCN(c6ccc(C(F)(F)F)cc6)CC5)cc4o3)CC2)cc1 [Compound 3-6, N-(1-(4-cyanobenzoyl)piperidin-4-yl)-6-(1-(4-(trifluoromethyl)phenyl)piperidin-4-yloxy)benzo[d]oxazole-2-carboxamide] |
| – | 100 to 1000 nM | O=C(c1nc2ccc(OC3CCN(c4ccc(C(F)(F)F)cc4)CC3)cc2o1)N1CC2CC1CN2Cc1ccncc1 (centres unmarked) [Compound 3-8, (5-(pyridin-4-ylmethyl)-2,5-diazabicyclo[2.2.1]heptan-2-yl)(6-(1-(4-(trifluoromethyl)phenyl)piperidin-4-yloxy)benzo[d]oxazol-2-yl)methanone] |
| – | 100 to 1000 nM | NC(=O)c1ccc(CN2CC3CC2CN3C(=O)c2nc3ccc(OC4CCN(c5ccc(C(F)(F)F)cc5)CC4)cc3o2)cc1 (centres unmarked) [Compound 3-9, 4-((5-(6-(1-(4-(trifluoromethyl)phenyl)piperidin-4-yloxy)benzo[d]oxazole-2-carbonyl)-2,5-diazabicyclo[2.2.1]heptan-2-yl)methyl)benzamide] |
| – | 100 to 1000 nM | N#Cc1ccc(CN2CC3CC2CN3C(=O)c2nc3ccc(OC4CCN(c5ccc(C(F)(F)F)cc5)CC4)cc3o2)cc1 (centres unmarked) [Compound 3-10, 4-((5-(6-(1-(4-(trifluoromethyl)phenyl)piperidin-4-yloxy)benzo[d]oxazole-2-carbonyl)-2,5-diazabicyclo[2.2.1]heptan-2-yl)methyl)benzonitrile] |
| – | 100 to 1000 nM | O=C(c1ccncc1)N1CC2CC1CN2C(=O)c1nc2ccc(OC3CCN(c4ccc(C(F)(F)F)cc4)CC3)cc2o1 (centres unmarked) [Compound 3-11, (5-isonicotinoyl-2,5-diazabicyclo[2.2.1]heptan-2-yl)(6-(1-(4-(trifluoromethyl)phenyl)piperidin-4-yloxy)benzo[d]oxazol-2-yl)methanone] |
| – | < 100 nM | N#Cc1ccc(C(=O)N2CC3CC2CN3C(=O)c2nc3ccc(OC4CCN(c5ccc(C(F)(F)F)cc5)CC4)cc3o2)cc1 (centres unmarked) [Compound 3-12, 4-(5-(6-(1-(4-(trifluoromethyl)phenyl)piperidin-4-yloxy)benzo[d]oxazole-2-carbonyl)-2,5-diazabicyclo[2.2.1]heptane-2-carbonyl)benzonitrile] |
| – | < 100 nM | O=C(c1ccc(F)cc1)N1CC2CC1CN2C(=O)c1nc2ccc(OC3CCN(c4ccc(C(F)(F)F)cc4)CC3)cc2o1 (centres unmarked) [Compound 3-13, (5-(4-fluorobenzoyl)-2,5-diazabicyclo[2.2.1]heptan-2-yl)(6-(1-(4-(trifluoromethyl)phenyl)piperidin-4-yloxy)benzo[d]oxazol-2-yl)methanone] |
| – | 1000 to 10000 nM | CC(C)(C)OC(=O)N1CCC(NC(=O)c2nc3ccc(OC4CCN(c5ccc(C(F)(F)F)cc5)CC4)cc3s2)CC1 [Compound 3-14, tert-butyl 4-(6-(1-(4-(trifluoromethyl)phenyl)piperidin-4-yloxy)benzo[d]thiazole-2-carboxamido)piperidine-1-carboxylate] |
| – | 100 to 1000 nM | O=C(NC1CCN(Cc2ccncc2)CC1)c1nc2ccc(OC3CCN(c4ccc(C(F)(F)F)cc4)CC3)cc2s1 [Compound 3-15, N-(1-(pyridin-4-ylmethyl)piperidin-4-yl)-6-(1-(4-(trifluoromethyl)phenyl)piperidin-4-yloxy)benzo[d]thiazole-2-carboxamide] |
